Measurements reported in patent US9469615B2, “Quinoxalines and AZA-quinoxalines as CRTH2 receptor modulators” (Merck Sharp & Dohme Corp., priority 2010, dated 2016).

Target: T1, hCRTH2 (Homo sapiens, UniProt Q9Y5Y4)
T1 construct: expressed in transfected cells; host or cells: HEK (human embryonic kidney) cells expressing hCRTH2; membrane preparation
T1 sequence (Q9Y5Y4 1-395): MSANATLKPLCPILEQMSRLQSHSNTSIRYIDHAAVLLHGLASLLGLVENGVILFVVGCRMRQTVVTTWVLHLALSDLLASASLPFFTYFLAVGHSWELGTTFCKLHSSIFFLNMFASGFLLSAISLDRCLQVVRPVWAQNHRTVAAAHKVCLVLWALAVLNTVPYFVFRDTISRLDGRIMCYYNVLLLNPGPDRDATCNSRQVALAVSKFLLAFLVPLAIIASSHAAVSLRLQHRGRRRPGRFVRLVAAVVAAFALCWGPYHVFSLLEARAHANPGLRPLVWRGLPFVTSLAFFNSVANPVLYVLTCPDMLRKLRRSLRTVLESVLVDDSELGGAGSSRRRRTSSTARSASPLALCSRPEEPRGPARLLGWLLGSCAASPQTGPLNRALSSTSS
Assay: Radioligand binding assay ([3H]PGD2 competition, HEK-hCRTH2 membranes)
Conditions: [3H]PGD2 binding, rated A-E (Table A)
Procedure, shortened: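 Membranes (8-20 μg protein) from HEK-hCRTH2 cells were incubated 60 min at room temperature with 3.0 nM [3H]PGD2 in 50 mM Tris-HCl pH 7.4, 1 mM EDTA, 2 mM MnCl2, 1% DMSO. Non-specific binding defined with 10 μM PGD2. Bound radioactivity counted after filtration.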

Which Ki does the source give for `O=C(O)CCCCc1nc2cc(C(=O)N3CCN(c4ccccc4F)CC3)ccc2nc1-c1ccc(Cl)cc1` [compound 190, 3-(4-chlorophenyl)-7-[[4-(2-fluorophenyl)-1-piperazinyl]carbonyl]-2-quinoxalinepentanoic acid] here?
The Ki was 0.1 to 2 nM.

`O=C(O)CCCCc1nc2cc(C(=O)N3CCN(c4ccc(Cl)cc4)CC3)ccc2nc1-c1ccc(Cl)cc1` [compound 191, 3-(4-chlorophenyl)-7-[[4-(4-chlorophenyl)-1-piperazinyl]carbonyl]-2-quinoxalinepentanoic acid] was tested. Which Ki did it give?
The Ki was 0.1 to 2 nM.

`O=C(O)Cc1cccc(CCc2nc3cc(C(=O)NCc4cccc(F)c4)ccc3nc2-c2ccc(F)cc2)c1` [compound 192, 3-[2-[3-(4-fluorophenyl)-7-[[[(3-fluorophenyl)methyl]amino]carbonyl]-2-quinoxalinyl]ethyl]benzencacetic acid] was tested. Which Ki did it give?
The Ki was 2.1 to 20 nM.

`O=C(O)Cc1cccc(CCc2nc3cc(C(=O)NCc4ccc(F)cc4)ccc3nc2-c2ccc(F)cc2)c1` [compound 193, 3-[2-[3-(4-fluorophenyl)-7-[[[(4-fluorophenyl)methyl]amino]carbonyl]-2-quinoxalinyl]ethyl] benzeneacetic acid] was tested. Which Ki did it give?
Its Ki is 2.1 to 20 nM.

Which Ki does the source give for `N#Cc1ccc(CNC(=O)c2ccc3nc(-c4ccc(F)cc4)c(CCc4cccc(CC(=O)O)c4)nc3c2)cc1` [compound 194] here?
Its Ki is 20.1 to 200 nM.

With `C[C@@H](NC(=O)c1ccc2nc(-c3ccc(F)cc3)c(CCc3cccc(CC(=O)O)c3)nc2c1)c1ccc(F)cc1` [compound 195, 3-[2-[3-(4-fluorophenyl)-7-[[[1(R)-(4-fluorophenyl)ethyl]amino]carbonyl]-2-quinoxalinyl]ethyl] benzeneacetic acid] as the compound, how does the Ki read?
Its Ki is 20.1 to 200 nM.

`C[C@H](NC(=O)c1ccc2nc(-c3ccc(F)cc3)c(CCc3cccc(CC(=O)O)c3)nc2c1)c1ccc(F)cc1` [compound 196] was tested. Which Ki did it give?
Its Ki is 20.1 to 200 nM.

`O=C(O)Cc1cccc(CCc2nc3cc(C(=O)N[C@@H](CCO)c4ccccc4)ccc3nc2-c2ccc(F)cc2)c1` [compound 197, 3-[2-[3-(4-fluorophenyl)-7-[[(3-hydroxy-1(S)-phenylpropyl)amino]carbonyl]-2-quinoxalinyl]ethyl] benzeneacetic acid] was tested. Which Ki did it give?
The Ki was 201 to 700 nM.

Which Ki does the source give for `O=C(O)Cc1cccc(CCc2nc3cc(C(=O)N4CCC(c5ccccc5)CC4)ccc3nc2-c2ccc(F)cc2)c1` [compound 198, 3-[2-[3-(4-fluorophenyl)-7-[(4-phenyl-1-piperidinyl)carbonyl]-2-quinoxalinyl]ethyl] benzeneacetic acid] here?
The Ki was 2.1 to 20 nM.

With `O=C(O)Cc1cccc(CCc2nc3cc(C(=O)N4CCN(c5ccccc5)CC4)ccc3nc2-c2ccc(F)cc2)c1` [compound 199, 3-[2-[3-(4-fluorophenyl)-7-[(4-phenyl-1-piperazinyl)carbonyl]-2-quinoxalinyl]ethyl] benzeneacetic acid] as the compound, how does the Ki read?
Its Ki is 2.1 to 20 nM.

`O=C(O)Cc1cccc(CCc2nc3cc(C(=O)N4CC(c5ccccc5)C4)ccc3nc2-c2ccc(F)cc2)c1` [compound 200, 3-[2-[3-(4-fluorophenyl)-7-[(3-phenyl-1-azetidinyl)carbonyl]-2-quinoxalinyl]ethyl] benzeneacetic acid] was tested. Which Ki did it give?
The Ki was 2.1 to 20 nM.

`CN(Cc1cccc(F)c1)C(=O)c1ccc2nc(-c3ccc(F)cc3)c(CCc3cccc(CC(=O)O)c3)nc2c1` [compound 201] was tested. Which Ki did it give?
The Ki was 0.1 to 2 nM.

Which Ki does the source give for `CN(Cc1ccccc1)C(=O)c1ccc2nc(-c3ccc(F)cc3)c(CCc3cccc(CC(=O)O)c3)nc2c1` [compound 202, 3-[2-[3-(4-fluorophenyl)-7-[[methyl(phenylmethyl)amino]carbonyl]-2-quinoxalinyl]ethyl] benzeneacetic acid] here?
Its Ki is 0.1 to 2 nM.

Which Ki does the source give for `CC(CCCc1nc2cc(C(=O)NCc3cccc(F)c3)ccc2nc1-c1ccc(F)cc1)C(=O)O` (stereo not drawn) [compound 203, 3-(4-fluorophenyl)-7-[[[(3-fluorophenyl)methyl]amino]carbonyl]-alpha-methyl-2-quinoxalinepentanoic acid] here?
Its Ki is 2.1 to 20 nM.

How did the Ki turn out when `CC(CCCc1nc2cc(C(=O)NCc3ccc(F)cc3)ccc2nc1-c1ccc(F)cc1)C(=O)O` (stereo not drawn) [compound 204, 3-(4-fluorophenyl)-7-[[[(4-fluorophenyl)methyl]amino]carbonyl]-alpha-methyl-2-quinoxalinepentanoic acid] was run?
The Ki was 2.1 to 20 nM.

`CC(CCCc1nc2cc(C(=O)N3CCC(c4ccccc4)CC3)ccc2nc1-c1ccc(F)cc1)C(=O)O` (stereo not drawn) [compound 205, 3-(4-fluorophenyl)-alpha-methyl-7-[(4-phenyl-1-piperidinyl)carbonyl]-2-quinoxalinepentanoic acid] was tested. Which Ki did it give?
The Ki was 2.1 to 20 nM.

How did the Ki turn out when `CC(CCCc1nc2cc(C(=O)N3CCN(c4ccccc4)CC3)ccc2nc1-c1ccc(F)cc1)C(=O)O` (stereo not drawn) [compound 206, 3-(4-fluorophenyl)-alpha-methyl-7-[(4-phenyl-1-piperazinyl)carbonyl]-2-quinoxalinepentanoic acid] was run?
The Ki was 2.1 to 20 nM.

`CC(CCCc1nc2cc(C(=O)NCc3ccc(C#N)cc3)ccc2nc1-c1ccc(F)cc1)C(=O)O` (stereo not drawn) [compound 207, 7-[[[(4-cyanophenyl)methyl]amino]carbonyl]-3-(4-fluorophenyl)-alpha-methyl-2-quinoxalinepentanoic acid] was tested. Which Ki did it give?
Its Ki is 2.1 to 20 nM.

For `CC(CCCc1nc2cc(C(=O)N3CC(c4ccccc4)C3)ccc2nc1-c1ccc(F)cc1)C(=O)O` (stereo not drawn) [compound 208, 3-(4-fluorophenyl)-alpha-methyl-7-[(3-phenyl-1-azetidinyl)carbonyl]-2-quinoxalinepentanoic acid], which Ki is on record?
Its Ki is 2.1 to 20 nM.

How did the Ki turn out when `CC(CCCc1nc2cc(C(=O)N[C@H](C)c3ccc(F)cc3)ccc2nc1-c1ccc(F)cc1)C(=O)O` (stereo partly drawn) [compound 209, 3-(4-fluorophenyl)-7-[[[1(R)-(4-fluorophenyl)ethyl]amino]carbonyl]-alpha-methyl-2-quinoxalinepentanoic acid] was run?
The Ki was 2.1 to 20 nM.

`CC(CCCc1nc2cc(C(=O)N[C@@H](C)c3ccc(F)cc3)ccc2nc1-c1ccc(F)cc1)C(=O)O` (stereo partly drawn) [compound 210, 3-(4-fluorophenyl)-7-[[[1(S)-(4-fluorophenyl)ethyl]amino]carbonyl]-alpha-methyl-2-quinoxalinepentanoic acid] was tested. Which Ki did it give?
Its Ki is 2.1 to 20 nM.

For `CC(CCCc1nc2cc(C(=O)N(C)Cc3cccc(F)c3)ccc2nc1-c1ccc(F)cc1)C(=O)O` (stereo not drawn) [compound 211, 3-(4-fluorophenyl)-7-[[[(3-fluorophenyl)methyl]methylamino]carbonyl]-alpha-methyl-2-quinoxalinepentanoic acid], which Ki is on record?
The Ki was 2.1 to 20 nM.

`CC(CCCc1nc2cc(C(=O)N(C)Cc3ccccc3)ccc2nc1-c1ccc(F)cc1)C(=O)O` (stereo not drawn) [compound 212, 3-(4-fluorophenyl)-alpha-methyl-7-[[methyl(phenylmethyl)amino]carbonyl]-2-quinoxalinepentanoic acid] was tested. Which Ki did it give?
Its Ki is 2.1 to 20 nM.

With `CC(CCCc1nc2cc(C(=O)N[C@@H](CCO)c3ccccc3)ccc2nc1-c1ccc(F)cc1)C(=O)O` (stereo partly drawn) [compound 213, 3-(4-fluorophenyl)-7-[[(3-hydroxy-1(S)-phenylpropyl)amino]carbonyl]-alpha-methyl-2-quinoxalinepentanoic acid] as the compound, how does the Ki read?
Its Ki is 20.1 to 200 nM.

With `COc1ccc(-c2nc3ccc(C(=O)N[C@H](C)c4ccc(F)cc4)cc3nc2CCCCC(=O)O)cc1` [compound 214, 7-[[[1(R)-(4-fluorophenyl)ethyl]amino]carbonyl]-3-(4-methoxyphenyl)-2-quinoxalinepentanoic acid] as the compound, how does the Ki read?
Its Ki is 0.1 to 2 nM.

`C[C@@H](NC(=O)c1ccc2nc(-c3ccc(C#N)cc3)c(CCCCC(=O)O)nc2c1)c1ccc(F)cc1` [compound 215, 3-(4-cyanophenyl)-7-[[[1(R)-(4-fluorophenyl)ethyl]amino]carbonyl]-2-quinoxalinepentanoic acid] was tested. Which Ki did it give?
Its Ki is 2.1 to 20 nM.

For `CC(C)Oc1ccc(-c2nc3ccc(C(=O)N4CCC(c5ccccc5)CC4)cc3nc2CCCCC(=O)O)cc1` [compound 216, 3-[4-(1-methyl-ethoxy)phenyl]-7-[(4-phenyl-1-piperidinyl)carbonyl]-2-quinoxalinepentanoic acid], which Ki is on record?
Its Ki is 20.1 to 200 nM.

Which Ki does the source give for `O=C(O)CCCCc1nc2cc(C(=O)N[C@@H]3CCCc4ccccc43)ccc2nc1-c1ccc(F)cc1` [compound 217, 3-(4-fluorophenyl)-7-[[(1,2,3,4-tetrahydro-1(R)-naphthalenyl)amino]carbonyl]-2-quinoxalinepentanoic acid] here?
The Ki was 0.1 to 2 nM.

Which Ki does the source give for `O=C(O)CCCCc1nc2cc(C(=O)N[C@H]3CCCc4ccccc43)ccc2nc1-c1ccc(F)cc1` [compound 218, 3-(4-fluorophenyl)-7-[[(1,2,3,4-tetrahydro-1(S)-naphthalenyl)amino]carbonyl]-2-quinoxalinepentanoic acid] here?
The Ki was 0.1 to 2 nM.

`O=C(O)CCCCc1nc2cc(C(=O)N[C@@H]3CCCc4cc(F)ccc43)ccc2nc1-c1ccc(F)cc1` [compound 219, 3-(4-fluorophenyl)-7-[[(6-fluoro-1,2,3,4-tetrahydro-1(R)-naphthalenyl)amino]carbonyl]-2-quinoxalinepentanoic acid] was tested. Which Ki did it give?
Its Ki is 0.1 to 2 nM.

`O=C(O)CCCCc1nc2cc(C(=O)N[C@H]3CCCc4cc(F)ccc43)ccc2nc1-c1ccc(F)cc1` [compound 220, 3-(4-fluorophenyl)-7-[[(6-fluoro-1,2,3,4-tetrahydro-1(S)-naphthalenyl)amino]carbonyl]-2-quinoxalinepentanoic acid] was tested. Which Ki did it give?
Its Ki is 0.1 to 2 nM.

How did the Ki turn out when `O=C(O)CCCCc1nc2cc(C(=O)N[C@@H]3CCCc4cc(Cl)ccc43)ccc2nc1-c1ccc(F)cc1` [compound 221, 7-[[(6-chloro-1,2,3,4-tetrahydro-1(R)-naphthalenyl)amino]carbonyl]-3-(4-fluorophenyl)-2-quinoxalinepentanoic acid] was run?
The Ki was 0.1 to 2 nM.

Same assay, conditions: [3H]PGD2 binding, values in text

For `O=C(O)Cc1cccc(CCc2nc3cc(C(=O)NCc4ccc(F)cc4)ccc3nc2-c2ccc(F)cc2)c1` [compound 193, 3-[2-[3-(4-fluorophenyl)-7-[[[(4-fluorophenyl)methyl]amino]carbonyl]-2-quinoxalinyl]ethyl] benzeneacetic acid], which Ki is on record?
Its Ki is 14.6 nM.

With `O=C(O)Cc1cccc(CCc2nc3cc(C(=O)N[C@@H](CCO)c4ccccc4)ccc3nc2-c2ccc(F)cc2)c1` [compound 197, 3-[2-[3-(4-fluorophenyl)-7-[[(3-hydroxy-1(S)-phenylpropyl)amino]carbonyl]-2-quinoxalinyl]ethyl] benzeneacetic acid] as the compound, how does the Ki read?
The Ki was 464 nM.

How did the Ki turn out when `O=C(O)CCCCc1nc2cc(C(=O)N[C@@H]3CCCc4ccccc43)ccc2nc1-c1ccc(F)cc1` [compound 217, 3-(4-fluorophenyl)-7-[[(1,2,3,4-tetrahydro-1(R)-naphthalenyl)amino]carbonyl]-2-quinoxalinepentanoic acid] was run?
Its Ki is 1.2 nM.
